Results taken from patent publication US20120136033A1, “Small Molecule Antagonists of Phosphatidylinositol-3,4,5-Triphosphate (PIP3) and Uses Thereof” (President and Fellows of Harvard College, priority 2009, published 2012).

Experiments:
Bcl-xL = Bcl-xL (Homo sapiens, UniProt Q07817); assay: NMR HSQC specificity control, Bcl-xL; type: binding
U87MG cells [1] = assay: long-term colony formation by U87MG cells; type: cell-based, human
[2] = tested on: U87MG cells (R130M PTEN vs wt PTEN); assay: Sytox cell death assay, U87MG expressing wild-type or R130M inactive PTEN; type: cell-based, human; details: 25, 50, 100 μM, 48 hr
Experimental: After treatment with 25, 50, or 100 μM PIT-1 for 48 hr, cell death was analyzed using Sytox cell death assay.
Based on the critical role of PIP3-dependent Akt signaling in the regulation of cell survival, the effect of PIT-1 on the cancer cell viability was tested. Cancer cells were seeded into 96-well plates (white plates for ATP assay; black plates for fluorescent assay; clear plates for MTS assay) at the density of 5-10×10^3 cells per well in 100 μl of the appropriate media. Compounds were added at a series of concentrations and incubated for different times. For the ATP assay, a luminescence-based commercial kit (CellTiter-Glo, Promega, Madison, Wis.) was used. Thirty microliters of cell lysis/ATP detection reagent was added to each well, mixed for 10 min at room temperature, and the luminescence was measured using a Wallac Victor 3 plate reader (Perkin-Elmer, Wellesley, Mass.). […] Twenty microliters of the combined MTS/PMS solution was added into each well, incubated for 4 hr at 37° C., and the absorbance at 490 nm was measured using a Wallac Victor 3 plate reader. For the Sytox cell death assay, measuring loss of plasma membrane integrity, cells were incubated with 1 μM Sytox Green reagent (Molecular Probes, Eugene, Oreg.) for 30 min at 37° C. and the fluorescence intensity was measured using Wallac Victor 3 plate reader with excitation at 485 nm and emission at 545 nm. […]

U87MG cells [3] = assay: sensitization of U87MG cells to killing by TRAIL, ATP assay; type: cell-based, human; details: 50 μM PITs or 10 μM Akt inhibitor VIII, 10 ng/ml TRAIL, 48 hr
Experimental: FIG. 10 is a bar graph depicting that PITs, as well as Akt inhibitor VIII, sensitize U87MG cells to killing by TRAIL. U87MG cells were incubated with 50 μM PIT-1, PIT-2, PIT-1i-1 or 10 μM Akt inhibitor VIII in the presence or absence of 10 ng/ml TRAIL for 48 hr, followed by cell viability analysis using ATP assay.
Based on the critical role of PIP3-dependent Akt signaling in the regulation of cell survival, the effect of PIT-1 on the cancer cell viability was tested. Cancer cells were seeded into 96-well plates (white plates for ATP assay; black plates for fluorescent assay; clear plates for MTS assay) at the density of 5-10×10^3 cells per well in 100 μl of the appropriate media. […] For the ATP assay, a luminescence-based commercial kit (CellTiter-Glo, Promega, Madison, Wis.) was used. Thirty microliters of cell lysis/ATP detection reagent was added to each well, mixed for 10 min at room temperature, and the luminescence was measured using a Wallac Victor 3 plate reader (Perkin-Elmer, Wellesley, Mass.). […] Twenty microliters of the combined MTS/PMS solution was added into each well, incubated for 4 hr at 37° C., and the absorbance at 490 nm was measured using a Wallac Victor 3 plate reader. […] Next, 5 μl of 20% (v/v) Triton X-100 solution was added to each well and incubated for 1 hr at 37° C., and the signal was measured again. […]

[4] = tested on: AMP-activated protein kinase (AMPK); assay: phosphorylation of AMPK and ACC (metabolic stress); type: cell-based
Excerpt: Changes in cell metabolism have emerged in recent years as an important component of PI3K/PIP3/Akt signaling, contributing to the regulation of cell viability and transformation by the PI3K/Akt pathway. Datta S R et al. (1999) Genes Dev 13:2905-27; Elstrom R L et al. (2004) Cancer Res 64:3892-9. Therefore, the possibility that PIT-1 may cause dysregulation of energy homeostasis and induction of the metabolic stress in cancer cells, which may contribute to the PIT-induced cell death, was investigated. […] Hardie D G (2007) Nat Rev Mol Cell Biol 8:774-85. […] Mathew R et al. (2007) Nat Rev Cancer 7:961-7. […] Takeuchi H et al. (2005) Cancer Res 65:3336-46.

SUM-159 cells = assay: acquisition of the invasive phenotype by SUM-159 cells; type: cell-based, human; details: reversible
rat aortic rings = assay: rat aortic ring microvessel outgrowth assay; type: cell-based; details: 144 h; rat aortic rings in matrigel, 6 days, 3.125-100 μM; read-out: IC50, microvessel outgrowth in aortic ring sprouting
Experimental: For the aortic ring assay, aortas were isolated from 6-week old Sprague-Dawley rats and immediately transferred to a culture dish with serum-free medium. The fibroadipose tissue around the aortas was carefully removed and the aortas were cut into 1-mm long aortic ring fragments. After three consecutive washes in serum-free medium, the aortic rings were embedded into 70 μl Matrigel in 96-well plate and fed with 100 μl of serum-free M199 medium with or without PIT-1 at different concentrations (3.125-100 μM). The medium was replaced every 24 hr. Phase-contrast images were obtained on day 6, and the numbers of microvessel outgrowths per ring were counted.
Microvessel growth from rat aorta sections is the result of a combination of endothelial cell proliferation, migration, and tube formation, and thus provides a close approximation of in vivo angiogenesis. For this experiment the rat aortic rings were embedded in matrigel and then were treated with PIT-1 (3.125-100 μM) for 6 days, followed by counting the number of microvessel outgrowths under microscope.

[5] = stability in dimethylsulfoxide; type: physicochemical

Chain of Bcl-xL (Q07817 whole entry, species assumed): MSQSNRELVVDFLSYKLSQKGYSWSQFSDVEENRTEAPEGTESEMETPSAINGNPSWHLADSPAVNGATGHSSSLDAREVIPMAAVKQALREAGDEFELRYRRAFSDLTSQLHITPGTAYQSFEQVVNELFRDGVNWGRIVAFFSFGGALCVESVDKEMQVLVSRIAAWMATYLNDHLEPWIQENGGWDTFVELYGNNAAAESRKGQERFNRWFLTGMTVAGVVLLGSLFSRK

Row | SMILES | changes in HSQC spectrum of Bcl-xL (Bcl-xL) | long-term colony formation by U87MG cells (U87MG cells [1]) | toxicity in U87MG cells lacking PTEN activity compared to wt PTEN-expressing cells [2] | sensitization of U87MG cells to killing by TRAIL (U87MG cells [3]) | phosphorylation of AMPK [4] | phosphorylation of acetyl-CoA carboxylase (ACC) [4] | acquisition of the invasive phenotype by SUM-159 cells (SUM-159 cells) | IC50 (rat aortic rings) [µM] | stability in dimethylsulfoxide (DMSO) [5]
1 | O=C(NC(=S)Nc1cc([N+](=O)[O-])cc(Cl)c1O)c1ccccc1 [PIT-1] | did not elicit any changes | suppressed long-term colony formation | more pronounced | substantially sensitized | significant increase in the phosphorylation | Increased phosphorylation | blocked acquisition of the invasive phenotype | 4.58 | 
2 | O=C1NC(=S)S/C1=C\c1cc(O)c([N+](=O)[O-])cc1Cc1ccccc1 [PIT-2] |  |  |  |  |  |  |  |  | limited stability
